Measured values taken from patent US7674881B2, “Convergent synthesis of proteins by kinetically controlled ligation” (The University of Chicago, priority 2005, dated 2010).
Read-outs that look alike come from different tables or passages of the source.

Columns and labels:
[1] = physchem
[2] = pKa of thiol catalysts (Table 3)
[3] = Solubility of thiol catalysts at pH 7 (Table 3)

Row | Structure (SMILES) | pKa [1] | Solubility at pH 7 | pKa [2] | Solubility at pH 7 [3]
1 | Sc1ccccn1 [2-mercaptopyridine] | -1.07 | Soluble | – | –
2 | Sc1ncccn1 [2-mercaptopyrimidine] | 2.03 | Very soluble | – | –
3 | O=C(O)c1cccc(S)c1 [3-mercaptobenzoic acid] | 5.78 | Very soluble | – | –
4 | Oc1cccc(S)c1 [3-mercaptophenol] | 6.5 | Very soluble | – | –
5 | Nc1ccc(S)cc1 [4-aminothiophenol] | 8.86 | Very soluble | – | –
6 | Sc1ccc(Cl)cc1 [4-chlorothiophenol] | – | – | 6.11 | Sparingly soluble
7 | Oc1ccc(S)cc1 [4-mercaptophenol] | 6.8 | Soluble | – | –
8 | O=C(O)Cc1ccc(S)cc1 [4-mercaptophenylacetic acid] | – | Very soluble | – | –
9 | COc1ccc(S)cc1 [4-methoxythiophenol] | 6.75 | Slightly soluble | – | –
10 | Cc1ccc(S)cc1 [4-methylthiophenol] | 6.8 | Sparingly soluble | – | –
11 | O=[N+]([O-])c1ccc(S)cc1 [4-nitrothiophenol] | – | Soluble | – | –
12 | SCc1ccccc1 [Benzyl mercaptan] | – | – | 9.67 | Sparingly soluble
13 | O=S(=O)([O-])CCS.[Na+] [MESNA, sodium 2-mercaptoethanesulfonate] | 9.08 | Very soluble | – | –
14 | Sc1ccccc1 [Thiophenol] | – | Slightly soluble | – | –
